# Test results as given in paper PMC6121244, “Differences in Functional Expression of Connexin43 and NaV1.5 by Pan- and Class-Selective Histone Deacetylase Inhibition in Heart” (International Journal of Molecular Sciences, 2018).
# Read-outs that look alike come from different tables or passages of the source.
# Experiments:
# [1] = test system: total HDAC activity in cultured neonatal mouse ventricular cardiomyocytes; conditions: NMVMs, cited from earlier work; for C1, decay constant of first exponential component of HDAC inhibition curve / C2, decay constant of second exponential component of HDAC inhibition curve: double exponential fit
# [2] = test system: cardiac sodium current (INa) in NMVMs, primarily NaV1.5; set-up: method as in PMID 27638876; conditions: previous experiments ref 13; cited from earlier work
# HDAC7 [3] = test system: HDAC7; set-up: method as in PMID 17868033; conditions: >100,000 = incomplete inhibition at 100 μM; cited from earlier work
# HDAC1 [4] = test system: HDAC1; set-up: method as in PMID 17868033; conditions: >100,000 = incomplete inhibition at 100 μM; cited from earlier work
# HDAC9 = test system: HDAC9; set-up: method as in PMID 17868033; conditions: >100,000 = incomplete inhibition at 100 μM; cited from earlier work
# HDAC3 = test system: HDAC3; set-up: method as in PMID 17868033; conditions: >100,000 = incomplete inhibition at 100 μM; cited from earlier work
# HDAC8 [5] = test system: HDAC8; set-up: method as in PMID 17868033; conditions: >100,000 = incomplete inhibition at 100 μM; cited from earlier work
# [6] = test system: Cx43 protein expression in NMVMs; experiment: Western blot of Cx43 protein level; assay type: cell-based, mouse; conditions: 24 h
# HDAC4 = test system: HDAC4; set-up: method as in PMID 17868033; conditions: >100,000 = incomplete inhibition at 100 μM; cited from earlier work
# IK,to and IK,ss in NMVMs = experiment: Transient and steady state outward K+ currents, whole cell patch clamp
# late INa in NMVMs = experiment: Late INa, whole cell patch clamp; assay type: cell-based, mouse
# Excerpt: Increases in late or persistent INa have been linked to cardiac arrhythmias and heart failure. […] . Subsequently, we modified a voltage clamp ramp protocol designed to generate late INa I–V relationships. […] .
# HDAC6 = conditions: cited from earlier work
# [7] = test system: NaV1.5 protein expression in NMVMs; experiment: Western blot of NaV1.5 protein level; assay type: cell-based, mouse; conditions: 24 h
# [8] = test system: total HDAC activity in cultured neonatal mouse ventricular cardiomyocytes; experiment: Fluor de Lys total HDAC activity assay in cultured ventricular cardiomyocytes; assay type: cell-based; conditions: NMVMs, 18–24 h treatment; for C1, decay constant of first exponential component of HDAC inhibition curve / C2, decay constant of second exponential component of HDAC inhibition curve: double exponential fit
# Description: Neonatal mice born from an inbred C57BL/6 mouse colony were anesthetized using isoflurane and the hearts were excised in accordance with procedures approved by the SUNY Upstate Medical University Institutional Animal Care and Use Committee (IACUC) # 263 on 15 March 2017. The excised hearts were separated into atria and ventricles and exposed to collagenase solution for digestion. The dissociated cells were pre-plated for 30 min to reduce fibroblast content by differential adhesion and the supernatant was collected, centrifuged and re-suspended in 1 mL/heart of M199/10% FBS culture media. The primary cells were plated into 96-well plates for HDAC activity assays, 35 mm culture dishes for patch clamp electrophysiology, or 60 mm culture dishes and homogenized after 3 days for Western blots.
# Aliquots of 2 × 10^5 ventricular myocytes per well (96-well plate) were grown in 200 μL of 200 μM bromodeoxyuridine (BrDU)/M199, exchanged daily. Cell densities were counted with a hemocytometer and seeded into the wells. Wells were incubated with 2000 pmoles of the acetylated Fluor-de-Lys® substrate for 8 h during HDAC inhibition. […]
# [9] = test system: ventricular gap junction conductance (gj), Cx43-mediated; experiment: Gap junction conductance (gj), dual whole cell patch clamp on NMVM cell pairs; assay type: cell-based, mouse
# Description: Final DMSO levels were <0.005% (vol/vol).
# Gap junction currents (Ij) were recorded in the dual whole cell configuration according to previously published methods. Upon establishing a dual whole cell patch, Ij was recorded using a 30 s, 20 mV trans-junctional voltage protocol. All dual whole cell current recordings were low-pass filtered at 500 Hz and digitized at 2 KHz using pClamp 8.2 and graphical analysis performed using Origin 7.5 or 8.6 software as previously described.
# [10] = test system: cardiac sodium current (INa) in NMVMs, primarily NaV1.5; experiment: Cardiac sodium current (INa) density and Vm-dependent gNa activation/inactivation, whole cell patch clamp; assay type: cell-based, mouse; conditions: 18–24 h
# Excerpt: Since both the activation and inactivation of INa are dependent on the membrane potential (Vm), we calculated the normalized Na^+ conductance (gNa) by dividing the average peak INa by the difference between Vm and the reversal potential (Erev) for INa, and then divided the gNa value for each Vm by the maximum gNa value for each experiment. The gNa–Vm curves were fit with a Boltzmann function gNa= gNamax+ (gNa− gNamax)/[1+exp((Vm− V1/2)/dVm)] using Origin 8.6. […] Final DMSO levels were <0.005% (vol/vol).
# HDAC8 [11] = test system: HDAC8; set-up: method as in PMID 17455259; conditions: cited from earlier work
# HDAC1 [12] = conditions: read-out: IC50 HDAC1, cited from earlier work
# HDAC1 [13] = test system: HDAC1
# [14] = test system: acetyl-α-tubulin and acetyl-histone 3; experiment: Western blot of acetylation markers; conditions: 1 μM MS-275, 24 h
# [15] = test system: HeLa nuclear extract HDAC activity; set-up: method as in PMID 17455259; conditions: incomplete inhibition; cited from earlier work
# HDAC5 = target: HDAC5; set-up: method as in PMID 20139990; conditions: cited from earlier work
# HDAC1 [16] = target: HDAC1; set-up: method as in PMID 20139990; conditions: cited from earlier work
# HDAC7 [17] = target: HDAC7; set-up: method as in PMID 20139990; conditions: cited from earlier work
# HDAC2 = target: HDAC2; set-up: method as in PMID 20139990; conditions: cited from earlier work
# [18] = adjusted values from published data ref 13
# [19] = 25, 100, 500, 2500 nM panobinostat, p < 0.05
# [20] = read-out: IC50(2), low affinity site, total HDAC activity, IC50 = 0.693·C2
# [21] = adjusted values from published data ref 14
smiles,measurement,setting,value
"O=C(CCCCCCC(=O)Nc1ccccc1)NO [VOR, suberoylanilide hydroxamic acid]","C1, decay constant of first exponential component of HDAC inhibition curve",[1]; [18],140 ± 30 nM
same,"C2, decay constant of second exponential component of HDAC inhibition curve",[1]; [18],1086 ± 312 nM
"CC(/C=C/C(=O)NO)=C\[C@@H](C)C(=O)c1ccc(N(C)C)cc1 [TSA, Trichostatin A]","C1, decay constant of first exponential component of HDAC inhibition curve",[1]; [18],10.6 ± 1.3 nM
same,"C2, decay constant of second exponential component of HDAC inhibition curve",[1]; [18],258 ± 76 nM
same,IC50,"[1]; adjusted values from published data ref 13, read-out: IC50(1), high affinity site, total HDAC activity",0.0073 ± 0.0009 µM
same,IC50,"[1]; adjusted values from published data ref 13, read-out: IC50(2), low affinity site, total HDAC activity",0.179 ± 0.053 µM
same,positive shift in half activation voltage (V½),[2],+2 to +8 mV
same,shift in Vm-dependent gNa inactivation curve,[2],no shift
"CCCC(CCC)C(=O)O [VPA, valproic acid]",IC50,HDAC7 [3],> 100 µM
same,IC50,HDAC1 [4],1580 µM
same,IC50,HDAC9,> 100 µM
same,IC50,HDAC3,3070 µM
same,IC50,HDAC8 [5],7440 µM
"Cc1[nH]c2ccccc2c1CCNCc1ccc(/C=C/C(=O)NO)cc1 [Panobinostat, panobinostat]",Cx43 protein level,[6]; [19],concentration-dependent decrease
same,transient outward and steady state K+ currents,"IK,to and IK,ss in NMVMs; 100 nM, 24 h",No signifi cant changes
same,effect on late INa,"late INa in NMVMs; 100 or 500 nM panobinostat overnight, average current 100 to 150 msec",no difference in late INa
same,NaV1.5 protein level,[7]; [19],concentration-dependent decrease
same,"C1, decay constant of first exponential component of HDAC inhibition curve",[8],57.4 ± 22.2 nM
same,"C2, decay constant of second exponential component of HDAC inhibition curve",[8],2959 ± 838 nM
same,IC50,"[8]; IC50 = 0.693·C1, listed as LBH589, read-out: IC50(1), high affinity site, total HDAC activity",0.0398 ± 0.0154 µM
same,IC50,"[8]; IC50 = 0.693·C1, read-out: IC50(1), high affinity site, total HDAC activity",~0.04 µM
same,IC50,[8]; [20],~2 µM
same,IC50,"[8]; read-out: IC50(2), low affinity site, total HDAC activity, IC50 = 0.693·C2, listed as LBH589",2.05 ± 0.581 µM
same,amplitude of exponential fit of decline in gj,"[9]; 18–24 h, exponential fit",48.5
same,effect on ventricular gj,"[9]; 100, 500 or 1000 nM panobinostat, 18–24 h",significant dose-dependent decrease
same,effect on peak cardiac Na+ current density,[10]; 100 or 500 nM panobinostat,decreased the cardiac sodium current density in a dose-dependent manner
"C/C=C1\NC(=O)[C@H]2CSSCC/C=C/[C@H](CC(=O)N[C@H](C(C)C)C(=O)N2)OC(=O)[C@H](C(C)C)NC1=O [FK228, romidepsin]","C1, decay constant of first exponential component of HDAC inhibition curve",[1]; [21],7.9 ± 0.9 nM
same,"C2, decay constant of second exponential component of HDAC inhibition curve",[1]; [21],2524 ± 678 nM
same,IC50,"[1]; adjusted values from published data ref 14, read-out: IC50(1), high affinity site, total HDAC activity",0.0055 ± 0.0006 µM
same,IC50,"[1]; adjusted values from published data ref 14, read-out: IC50(2), low affinity site, total HDAC activity",1.75 ± 0.47 µM
same,positive shift in half activation voltage (V½),[2],+2 to +8 mV
same,shift in Vm-dependent gNa inactivation curve,[2],no shift
"CCCC(=O)[O-].[Na+] [NaB, sodium butyrate]",activity against the class IIb HDAC6,HDAC6,no activity
same,increase in gj,[9]; 5 mM NaB alone,26%
same,effect on gj,[9]; increasing concentrations of NaB,non-significantly increased gj in a concentration-dependent manner
"Nc1ccccc1NC(=O)c1ccc(CNC(=O)OCc2cccnc2)cc1 [Entinostat, entinostat]",IC50,HDAC8 [11],[…]
same,Cx43 protein level,[6]; 1 μM entinostat,no significant changes
same,transient outward and steady state K+ currents,"IK,to and IK,ss in NMVMs; 1 μM MS275, 24 h",no si gni ficant chang es
same,preferential inhibition of HDAC1 over other HDACs,HDAC1 [13],10–100 fold
same,Ac-H3 and Ac-α-tubulin signals,[14],only increased the Ac-H3 signal
same,effect on late INa current density,"late INa in NMVMs; 1 μM entinostat 18–24 h, Vm ramp",no increase in late INa
same,NaV1.5 protein level,[7]; 1 μM entinostat,no significant changes
same,IC50,[15],11 µM
same,"C1, decay constant of first exponential component of HDAC inhibition curve",[8],629 ± 166 nM
same,"C2, decay constant of second exponential component of HDAC inhibition curve",[8],"12,926 ± 3655 nM"
same,IC50,"[8]; read-out: IC50(1), high affinity site, total HDAC activity, IC50 = 0.693·C1",0.436 ± 0.115 µM
same,IC50,[8]; [20],8.96 ± 2.53 µM
same,effect on ventricular gj,"[9]; 5 μM entinostat, 18–24 h",significant reduction in gj
same,effect on peak Na+ current density,[10]; 1 μM entinostat,no significant effect
"O=C(CCCCCCC(=O)Nc1ccc([C@H]2O[C@@H](CSc3nc(-c4ccccc4)c(-c4ccccc4)o3)C[C@@H](c3ccc(CO)cc3)O2)cc1)NO [Tubacin, tubacin]",Ki,HDAC5,1.5 ± 0.25 µM
same,Ki,HDAC1 [16],0.028 ± 0.004 µM
same,Ki,HDAC7 [17],8.5 ± 1.5 µM
same,increase in gj,[9]; 10 μM tubacin alone,9%
same,effect on gj,"[9]; 20 μM tubacin, highest tested dose",slight decrease
same,effect on gj,[9]; increasing concentrations of tubacin,non-significant increase and then decrease in gj with increasing concentration
same,Ki,HDAC2,0.042 ± 0.0035 µM
